We go through 5 compounds from patent publication US8288559B2, “Luminogenic compounds and methods to detect cytochrome P450 3A enzymes” (Promega Corporation, priority 2008, dated 2012).

Molecules are shown by their SMILES.

Series [1] has as its target T1, CYP3A4 (Homo sapiens, UniProt P08684). As to conditions: non-acetal CYP3A4 substrates, Cali et al. 2006; cited from earlier work.
Series [2] concerns the target T1, CYP3A4. Description: Two-step luminescent P450 assay with luciferin derivatives, recombinant enzyme panel screen. It counts as biochemical. Details: purchased Discovery Labware (Supersomes™); host or cells: insect cell expression system. Conditions: for signal/background (S/B) ratio: CYP3A4 vs minus P450 control, 50 μM substrate, 1 pmole P450, 30 minutes at 37° C. (FIG. 2). As for the experimental part:
(§1) For assays using recombinant P450 enzymes, a two-step scheme was followed whereby a luciferin derivative is oxidized by a P450 enzyme in a first step. In the second step, LDR is added to the P450 reaction mixture to stop the P450 activity and initiate a glow-style luciferase reaction whereby the luminescent signal strength is dependent on the amount of luciferin derivative oxidized by a P450 enzyme in the first step.
(§2) Reaction buffers for the P450 enzyme reaction of the first step varied depending on the P450 enzyme used. […] Unless otherwise indicated, the following buffer/enzyme combinations were used: 100 mM KPO4, pH 7.4 for CYP1A1, 1A2, 1B1, 2D6, 2E1, 3A5, 3A7, 2J2, 4F12, 19, and control samples; 50 mM KPO4, pH 7.4 for CYP2B6, 2C8, 2C19, 4F2, 4F3A, 4F3B; 25 mM KPO4, pH 7.4 for CYP2C9; 200 mM KPO4, pH 7.4 for CYP3A4; 100 mM TrisHCl, pH 7.5 for CYP2A6, 2C18, 4A11.
(§3) In FIG. 2 and FIGS. 8-19, luciferin derivatives were screened against a panel of recombinant human cytochrome P450 enzyme and control microsomes (Supersomes™). Concentrated stock solutions of the proluciferin acetal compounds were prepared as follows: 50 mM 3320, 3357, 3364, 3366 and 3391 in acetonitrile; 50 mM 3359, 3365, 3397 and 3403 in dimethyl sulfoxide (DMSO); 50 mM 3377 in H2O; 10 mM 3363 in H2O. Luciferin-PPXE, luciferin-PFBE and luciferin-BE were provided as a 50 mM solution in DMSO, 2 mM solution in 25 mM Tris, pH 8 and a 5 mM solution in 100 mM KPO4, pH 7.4, respectively. Assays were performed in opaque, white, polystyrene, flat-bottom 96-well plates.
(§4) In FIG. 20 using compound 3391, the method used in FIGS. 2 and 8-19 was used with the following changes: 0.1 picomole of each P450 enzyme or an equivalent volume of control membranes was used per reaction; for all reactions, 2 μM compound 3391 was used, 100 mM KPO4, pH 7.4 was used as the P450 reaction buffer, and the reaction was incubated for 10 minutes at 37° C.
(§5) Briefly, in a first step a proluciferin acetal of the present invention is oxidized initially by a P450 enzyme. The oxidized product is then thought to undergo a non-enzymatic conversion to a proluciferin ester. In a second step, the proluciferin ester is detected by adding a luciferase reaction mixture containing an esterase enzyme that converts the proluciferin ester to luciferin. The luciferin reacts with luciferase to produce an amount of light that is proportional to the amount of luciferin, and therefore to the amount of P450 enzyme activity. A sample that contains active P450 enzyme is typically compared to a control that is devoid of P450 activity.

Series [3] deals with T1, CYP3A4. As for the experimental part: In FIGS. 3-6, CYP3A4 enzyme was co-expressed with cytochrome b5 and cytochrome P450 reductase in membrane fractions (Supersomes™). […] The reactions were initiated by addition of the NADPH regenerating system and incubated for 10 minutes at 37° C. After incubation, an equal volume (50 μl) of LDR was added and luminescence read 20 minutes later at room temperature on a Veritas™ luminometer. […] IC50 is the concentration of inhibitor that causes 50% inhibition of the reaction. Curve fits and IC50 calculations were performed with the program GraphPad Prism™.

Series [4] has as its target T1, CYP3A4. Conditions: cited from earlier work.
Another series addresses T2, CYP3A4 versus CYP3A5 (Homo sapiens, UniProt P20815).
T2 construct: purchased Discovery Labware (Supersomes™); host or cells: insect cell expression system
Description: Two-step luminescent P450 assay, recombinant enzyme panel screen. It counts as biochemical. As to conditions: human, recombinant human CYP3A4 and CYP3A5 microsomes (Supersomes), pH 7.4; FIG. 2 conditions: 50 μM compound, 1 pmole P450, 30 minutes; read-out: selectivity for CYP3A4 over CYP3A5. The method, then:
as §1, §2, §3, §4, §5

The next series addresses T3, CYP3A4 versus CYP3A7 (Homo sapiens, UniProt P24462).
T3 construct: purchased Discovery Labware (Supersomes™); host or cells: insect cell expression system
The description is as above. The series is classed as biochemical. As to conditions: human, recombinant human CYP3A4 and CYP3A7 microsomes (Supersomes), pH 7.4; FIG. 2 conditions: 50 μM compound, 1 pmole P450, 30 minutes; read-out: selectivity for CYP3A4 over CYP3A7. The method, then:
as §1, §2, §3, §4, §5

The target of a further series is T4, CYP3A5 (Homo sapiens, UniProt P20815).
T4 construct: purchased Discovery Labware (Supersomes™); host or cells: insect cell expression system
The series is described as above. It counts as biochemical. Conditions: FIG. 20 conditions: 2 μM compound, 0.1 picomole P450, 100 mM KPO4 pH 7.4, 10 minutes at 37° C. As for the experimental part:
as §1, §2, §3, §4, §5

The target in a further series is T5, CYP3A7 (Homo sapiens, UniProt P24462).
T5 construct: purchased Discovery Labware (Supersomes™); host or cells: insect cell expression system
Described as above. The series is classed as biochemical. Conditions: FIG. 20 conditions: 2 μM compound, 0.1 picomole P450, 100 mM KPO4 pH 7.4, 10 minutes at 37° C. As for the experimental part: as §1, §2, §3, §4, §5

For series [5], the system named is panel of 21 recombinant human cytochrome P450 enzymes. The series is described as above. It counts as biochemical. As for the experimental part: as §1, §2
In FIG. 2 and FIGS. 8-19, luciferin derivatives were screened against a panel of recombinant human cytochrome P450 enzyme and control microsomes (Supersomes™). […]
Briefly, in a first step a proluciferin acetal of the present invention is oxidized initially by a P450 enzyme. […] In a second step, the proluciferin ester is detected by adding a luciferase reaction mixture containing an esterase enzyme that converts the proluciferin ester to luciferin. […]

For series [6], the target named is T1, CYP3A4. Description: Concentration dependence of the CYP3A4 reaction with compound 3391. It counts as biochemical. Details: purchased Discovery Labware (Supersomes™); host or cells: insect cell expression system. As for the experimental part: The reactions were performed as described for FIGS. 3-6 except no inhibitors were present in the reactions, and the concentration of compound 3391 varied as indicated in FIG. 7. Signals are expressed as net relative luminescent units (RLU) calculated by subtracting the background RLU values of control reaction mixtures that lack CYP3A4 enzyme from the RLU values of the CYP3A4 reactions. The curve fit was performed with the program GraphPad Prism™.
FIG. 7 illustrates the concentration dependence of the CYP3A4 reaction with compound 3391. […] The data fit well to a substrate inhibition model (R^2=0.99) described by the equation Y=(Vmax·X)/(Km+X+(X·X/Ki)), where X=substrate concentration, Y=activity in relative light units (RLU), Km=[…] and Ki=the substrate inhibition constant.

T1 sequence (P08684 whole entry): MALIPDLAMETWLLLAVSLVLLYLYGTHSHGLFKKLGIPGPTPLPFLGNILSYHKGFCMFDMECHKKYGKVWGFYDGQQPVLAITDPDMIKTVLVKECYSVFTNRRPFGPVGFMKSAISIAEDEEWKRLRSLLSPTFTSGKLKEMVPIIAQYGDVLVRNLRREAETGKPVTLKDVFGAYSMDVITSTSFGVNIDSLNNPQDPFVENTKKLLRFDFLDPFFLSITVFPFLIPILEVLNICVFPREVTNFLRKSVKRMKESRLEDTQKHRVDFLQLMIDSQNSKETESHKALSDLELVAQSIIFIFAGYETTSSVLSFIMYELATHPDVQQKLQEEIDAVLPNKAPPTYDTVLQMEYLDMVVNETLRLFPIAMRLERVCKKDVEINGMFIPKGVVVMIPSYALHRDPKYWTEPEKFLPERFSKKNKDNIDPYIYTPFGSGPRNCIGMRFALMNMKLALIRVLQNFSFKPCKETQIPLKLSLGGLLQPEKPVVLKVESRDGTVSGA
T3 sequence (P24462 whole entry): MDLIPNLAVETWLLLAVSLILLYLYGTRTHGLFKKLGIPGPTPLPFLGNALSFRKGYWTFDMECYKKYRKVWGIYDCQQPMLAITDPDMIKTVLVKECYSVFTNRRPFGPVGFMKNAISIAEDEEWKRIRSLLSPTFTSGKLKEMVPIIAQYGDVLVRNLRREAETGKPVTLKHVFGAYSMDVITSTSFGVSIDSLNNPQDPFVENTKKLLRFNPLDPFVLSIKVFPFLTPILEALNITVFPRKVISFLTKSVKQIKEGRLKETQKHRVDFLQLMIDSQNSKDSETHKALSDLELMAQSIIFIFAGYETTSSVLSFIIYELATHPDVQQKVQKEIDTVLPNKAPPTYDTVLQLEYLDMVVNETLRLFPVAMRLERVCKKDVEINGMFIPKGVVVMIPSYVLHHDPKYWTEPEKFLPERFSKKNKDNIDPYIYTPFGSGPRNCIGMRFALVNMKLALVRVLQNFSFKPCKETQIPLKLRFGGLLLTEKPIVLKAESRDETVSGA
T5 sequence (P24462 whole entry): as above
T2 sequence (P20815 whole entry): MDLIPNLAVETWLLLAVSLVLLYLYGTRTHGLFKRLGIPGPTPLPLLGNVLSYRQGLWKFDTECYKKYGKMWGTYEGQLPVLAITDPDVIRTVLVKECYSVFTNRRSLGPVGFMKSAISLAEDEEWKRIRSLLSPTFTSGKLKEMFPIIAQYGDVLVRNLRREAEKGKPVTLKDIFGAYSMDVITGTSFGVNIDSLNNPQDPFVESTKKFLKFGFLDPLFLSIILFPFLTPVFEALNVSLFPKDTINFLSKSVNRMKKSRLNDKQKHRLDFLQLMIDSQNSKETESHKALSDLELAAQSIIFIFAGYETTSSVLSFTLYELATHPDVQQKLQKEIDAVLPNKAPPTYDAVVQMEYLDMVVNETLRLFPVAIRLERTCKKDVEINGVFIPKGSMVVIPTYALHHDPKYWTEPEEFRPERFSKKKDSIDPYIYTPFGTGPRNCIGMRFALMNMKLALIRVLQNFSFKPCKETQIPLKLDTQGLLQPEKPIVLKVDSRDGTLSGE
T4 sequence (P20815 whole entry): as above

Broadly, the Km is the substrate concentration at which the rate is half of its maximum. On to `O=C(O)[C@H]1CSC(c2nc3ccc(OCc4ccccc4)cc3s2)=N1` [luciferin-BE, (S)-2-(6-(benzyloxy)benzo[d]thiazol-2-yl)-4,5-dihydrothiazole-4-carboxylic acid, reference compound], for which, at CYP3A4 [1], the Km was 50 µM. In addition, at CYP3A4 [2], the “signal/background (S/B) ratio” value is 55.
Regarding `Cc1ncc2n1-c1ccc(Cl)cc1C(c1ccccc1F)=NC2` [midazolam], the “effect on the CYP3A4/3391 reaction” value at CYP3A4 [3] is “inhibited”. At CYP3A4 [4], the “effect on CYP3A4 assay using luciferin-BE” value was “inhibited”, the “effect on CYP3A4 assay using luciferin-PFBE” value is recorded as “inhibited” and the “effect on CYP3A4 assay using luciferin-PPXE” value was “inhibited”.
For `O=C(O)[C@H]1CSC(c2nc3ccc(OCc4cccc(CN5CCN(c6ccccc6)CC5)c4)cc3s2)=N1` [luciferin-PPXE, (S)-2-(6-(3-((4-phenylpiperazin-1-yl)methyl)benzyloxy)benzo[d]thiazol-2-yl)-4,5-dihydrothiazole-4-carboxylic acid, reference compound], on CYP3A4 [1], the Km was 25 µM. In addition, the “signal/background (S/B) ratio” value at CYP3A4 [2] is 56.
As for `CC(C)OC(OC(C)C)C1CSC(c2nc3ccc(O)cc3s2)=N1` (stereo not drawn) [compound 3391], the selectivity ratio at 30 min, 50 μM on CYP3A4 versus CYP3A5 was found to be 1.4; at CYP3A4 versus CYP3A7 it was 8.5. In addition, the “preference for CYP3A4 over CYP3A5” value at CYP3A5 is listed as 8.0 fold. The “preference for CYP3A4 over CYP3A7” value at CYP3A7 is recorded as 48.5 fold. The “selectivity/preference for the CYP3A subfamily (CYP3A4, CYP3A5, CYP3A7)” value in series [5] (50 μM, one picomole enzyme, 30 minutes at 37° C.) is reported as “excellent selectivity”. Further, the “activities with the other P450 enzymes screened” value in series [5] (FIG. 20 conditions: 2 μM compound, 0.1 picomole P450, 10 minutes) is “negligible”. For the same compound, at CYP3A4 [2] (0.1 picomoles of CYP3A4, 10 minute incubation, 2 μM), the “fraction of compound oxidized during the incubation” value is given as “less than 10%”. For the same compound, the “signal/background (S/B) ratio” value at CYP3A4 [2] came to 1699. Further, the “time over which product accumulation with CYP3A4 is linear” value on CYP3A4 [2] (FIG. 20 conditions) was “at least 10 minutes”. The “substrate concentration at maximal rate” value at CYP3A4 [6] (FIG. 7) came to 12.5 µM. In addition, the Ki at CYP3A4 [6] (substrate inhibition model fit, read-out: Ki (substrate inhibition constant)) amounted to 171 µM.
Regarding `O=C(O)[C@H]1CSC(c2nc3ccc(OC(F)(F)c4c(F)c(F)c(F)c(F)c4F)cc3s2)=N1` [luciferin-PFBE, (S)-2-(6-(perfluorobenzyloxy)-benzo[d]thiazol-2-yl)-4,5-dihydrothiazole-4-carboxylic acid, reference compound], on CYP3A4 [1], the Michaelis constant (Km) is 50 µM. For the same compound, the “signal/background (S/B) ratio” value at CYP3A4 [2] was found to be 92.
